Results taken from BigSolDB 2.1.

CC(=O)C1=C(O)C=C2Oc3c(C(C)=O)c(O)c(C)c(O)c3C2(C)C1=O (stereo in doubt)
solubility (mole fraction)
Details	in acetone	in ethanol	in ethyl acetate	in n-hexane	in water
278.15 K	0.000422	–	–	–	–
283.15 K	0.000454	–	–	–	–
288.15 K	0.000541	3.09e-05	0.00109	5.97e-05	2.81e-07
293.15 K	0.00061	4.23e-05	0.00125	6.97e-05	2.99e-07
298.15 K	0.000747	5.3e-05	0.00158	8.06e-05	3.31e-07
303.15 K	0.000879	6.8e-05	0.00189	9.43e-05	3.52e-07
308.15 K	0.000978	9.3e-05	0.00216	0.000106	3.75e-07
313.15 K	0.00121	0.000114	0.00275	0.000128	4.06e-07
318.15 K	0.00165	0.000121	0.00314	0.000149	4.46e-07
323.15 K	0.00197	0.000148	0.0038	0.000176	4.77e-07
328.15 K	–	0.000203	0.00444	0.000224	5.3e-07
333.15 K	–	0.000234	0.00518	0.000256	5.94e-07
338.15 K	–	0.000274	0.00689	0.00029	6.61e-07
